In a melting point compilation (Tetko et al.):

O=C(Nc1cccc(I)c1)C(F)(F)F
melting point: 129 to 131 °C

Fc1ccccc1-c1nnc(S)n1Cc1ccccc1
melting point: 90 to 92 °C

O=C(Cl)c1cc(Cl)nc2ccccc12
melting point: 85 to 87 °C

CC(C)NS(=O)(=O)Cc1ccc(CN)cc1
melting point: 148 to 150 °C

Cc1cc(C(=O)O)c2c(Br)cccc2n1
melting point: 232 to 234 °C

CN(C)S(=O)(=O)c1ccccc1C#N
melting point: 57 to 59 °C

COc1ccc(N)c(OC)n1
melting point: 210 to 212 °C

CC(=CC(=O)O)c1ccccc1F
melting point: 101 to 103 °C

O=C(O)CCN1C(=O)NC2(CCCC2)C1=O
melting point: 167 to 169 °C

NNC(=S)NCC(N)=O
melting point: 153 to 155 °C

CC(O)C(NS(=O)(=O)c1ccc(Cl)cc1)C(=O)O (stereo unspecified)
melting point: 179 to 181 °C

CCOC(=O)c1cc(C)cc(Br)c1N
melting point: 44 to 46 °C

CSCC(=O)Nc1ccc(O)cc1
melting point: 107 to 109 °C

COC(=O)Cc1cc(=O)[nH]c(S)n1
melting point: 185 to 187 °C

CC(C)C(NC(=O)c1ccco1)C(=O)O (stereo unspecified)
melting point: 103 to 105 °C

CCC(C)Nc1ccc(C(N)=O)cc1 (stereo unspecified)
melting point: 113 to 115 °C

CCCC(C)(NC(=O)OCc1ccccc1)C(=O)O (stereo unspecified)
melting point: 103 to 105 °C

O=C(NCCO)c1ccc(O)cc1O
melting point: 163 to 165 °C

O=C(O)c1csc(-c2ncccn2)n1
melting point: 217 to 219 °C

O=S1(=O)CC(S(=O)(=O)Cl)c2ccccc21 (stereo unspecified)
melting point: 144 to 146 °C

O=S1(=O)C=CC(N=C=S)C1 (stereo unspecified)
melting point: 61 to 63 °C

CC(C)(C)c1cc(N)n(-c2cccc(Cl)c2)n1
melting point: 99 to 101 °C

COC(=O)Nc1ccc(CO)cc1
melting point: 79 to 81 °C

Cc1nc2nnnn2c(C)c1CCC(=O)O
melting point: 187 to 189 °C

O=C(O)CSCC(=O)N1CCOCC1
melting point: 119 to 121 °C

Nc1nc(-c2cccs2)c(-c2cccs2)s1
melting point: 139 to 141 °C

NS(=O)(=O)c1cccc2cccnc12
melting point: 183 to 185 °C

O=C1NC2(CCNCC2)NC12CCCCC2
melting point: 276 to 278 °C

Cn1ccnc1C(O)CCc1ccccc1 (stereo unspecified)
melting point: 101 to 103 °C

Oc1ccc(C2=Nn3c(nnc3-c3ccc(Br)cc3)SC2)cc1O
melting point: 269 to 271 °C

Cc1ccc(-c2nnc(N)[nH]2)cc1
melting point: 206 to 208 °C

NC(=S)c1cccc(C(=O)O)c1
melting point: 240 to 242 °C

NS(=O)(=O)c1ccc2c(c1)oc(=O)n2CC(=O)O
melting point: 168 to 170 °C

O=C(O)C1CC1C1CC1 (stereo unspecified)
melting point: 29 to 31 °C

Cc1cc(N)nc(C)c1Br
melting point: 147 to 149 °C

COc1ccc(C(=O)NC(C(=O)O)C(C)C)cc1 (stereo unspecified)
melting point: 163 to 165 °C

CC(=O)NC1CNc2ccccc2C1 (stereo unspecified)
melting point: 124 to 126 °C

COc1ccc(-n2ccnc2S)c(C)c1
melting point: 238 to 240 °C

O=Cc1nc(-c2ccccc2)c[nH]1
melting point: 170 to 172 °C

NNC(=O)c1ccc(F)cc1Cl
melting point: 161 to 163 °C

Cc1oncc1C(=O)Nc1ccc(N)c(C(F)(F)F)c1
melting point: 196 to 198 °C

CCOC(=O)c1csc(Cc2ccc(NC(=O)OC(C)(C)C)cc2)n1
melting point: 135 to 137 °C

Nc1nc(-c2cccc(Oc3ccccc3)c2)ns1
melting point: 138 to 140 °C

O=C1C(Br)CCN1c1ccccc1F (stereo unspecified)
melting point: 76 to 78 °C

N#Cc1cc2c([nH]c1=O)CCCCC2
melting point: 253 to 255 °C

O=C(O)c1ccc(OCC2CC2)nc1
melting point: 156 to 158 °C

CN(C)c1nc2cc(C#N)ccc2o1
melting point: 203 to 205 °C

NC(=O)c1cccc(S(=O)(=O)Cl)c1
melting point: 78 to 80 °C

O=Cc1coc(-c2ccccc2)n1
melting point: 90 to 92 °C

Nc1nnc(-c2cccc3ccccc23)o1
melting point: 184 to 186 °C

Clc1ccc(Cn2cncn2)cn1
melting point: 61 to 63 °C

CC1CCCN(S(=O)(=O)c2ccc(N)cc2)C1 (stereo unspecified)
melting point: 129 to 131 °C

Cc1cc(C)c2nc(N)sc2c1
melting point: 135 to 137 °C

O=Cc1ccc(-n2ccnc2)c(F)c1
melting point: 69 to 71 °C

COc1ccc2ncc(=O)[nH]c2c1
melting point: 179 to 181 °C

COC(=O)c1cc(OC)ccc1S(=O)(=O)Cl
melting point: 49 to 51 °C

NC(=O)CSc1ccccc1C(=O)O
melting point: 210 to 212 °C

COC(=O)c1ccc(-c2nn[nH]n2)cc1
melting point: 230 to 232 °C

Cc1cc2c(c(C)c1Cl)C(=O)CCO2
melting point: 67 to 69 °C

O=C(O)CNc1nccs1
melting point: 261 to 263 °C

N#Cc1ccc(Cn2cncn2)c(F)c1
melting point: 107 to 109 °C

O=C(O)Cc1csc(NC(=O)NC2CC2)n1
melting point: 188 to 190 °C

NCCNC(CC(=O)O)C(N)=O (stereo unspecified)
melting point: 161 to 163 °C

O=C(CCl)NC(=O)OCc1ccccc1
melting point: 113 to 115 °C

c1cc2c(s1)CCNC2C1CC1 (stereo unspecified)
melting point: 44 to 46 °C

Cc1n[nH]c(C)c1C=O
melting point: 85 to 87 °C

Nc1cnn(CC(=O)O)c1
melting point: 206 to 208 °C

Cc1nc2c3ccccc3nc(Cl)n2n1
melting point: 140 to 142 °C

O=C(c1ccccc1)c1ccc(OC(F)F)cc1
melting point: 156 to 158 °C

O=C(O)c1ccc(Br)c(S(=O)(=O)Cl)c1
melting point: 181 to 183 °C

Cc1cccc(C)c1Nc1nnc(S)s1
melting point: 266 to 268 °C

C1=CNc2cccc(=C3N=c4ccncc4=N3)c2=C1
melting point: 316 to 318 °C

O=C(CBr)CS(=O)(=O)c1ccccc1
melting point: 96 to 98 °C

CNC(=O)c1ccc(C#N)cc1
melting point: 209 to 211 °C

Cc1cc(C(=O)O)c(O)c(S(N)(=O)=O)c1
melting point: 218 to 220 °C

Cn1cnnc1C1CCNCC1
melting point: 181 to 183 °C

N#CCNC(=O)CN1CCC(=O)CC1
melting point: 124 to 126 °C

N#Cc1cc(C2CC2)ccn1
melting point: 60 to 62 °C

COCCc1ccc2oc(N)nc2c1
melting point: 159 to 161 °C

O=C(CCCl)Nc1ccc(F)cc1
melting point: 109 to 111 °C

O=C(O)c1ccc(-n2ccnn2)cc1
melting point: 279 to 281 °C

NS(=O)(=O)c1ccc([N+](=O)[O-])nc1
melting point: 174 to 176 °C

NS(=O)(=O)CCN1CCNCC1
melting point: 144 to 146 °C

CC(=O)N(c1nc(CCl)cs1)C1CC1
melting point: 56 to 58 °C

NC(CC(=O)Nc1ccc(F)cc1)=NO
melting point: 142 to 144 °C

O=Cc1ccc(-c2cccc(F)c2)s1
melting point: 101 to 103 °C

C#CCNC(=O)Nc1ccccc1F
melting point: 134 to 136 °C

NNC(=O)CCc1ccc(S(=O)(=O)N2CCOCC2)cc1
melting point: 128 to 130 °C

CCc1nsc(S)n1
melting point: 144 to 146 °C

Cc1c(C(=O)O)oc2c1C(=O)CCC2
melting point: 227 to 229 °C

O=C1CCC(Cc2ccc(Cl)cc2)C(=O)N1 (stereo unspecified)
melting point: 150 to 152 °C

O=C(O)c1ccc(S(=O)(=O)Nc2ccccc2)cc1
melting point: 225 to 228 °C

CCOC(=O)c1cc(CC)sc1NC(=O)CCl
melting point: 74 to 76 °C

CCOC(=O)c1cc2ccc(Br)cc2[nH]1
melting point: 187 to 189 °C

O=S(=O)(NCc1ccccc1)c1cccs1
melting point: 145 to 150 °C

O=C(O)/C=C/c1cn(-c2ccccc2)nc1-c1ccc(Cl)s1
melting point: 200 to 202 °C

O=C(Nc1sc2ccccc2c1Cl)OCC(F)(F)F
melting point: 95 to 97 °C

COC(=O)c1cc([N+](=O)[O-])ccc1S(=O)(=O)Cl
melting point: 109 to 111 °C

N#Cc1ccc(Cl)nn1
melting point: 83 to 85 °C

O=C(O)CC1C(=O)Nc2ccccc21 (stereo unspecified)
melting point: 214 to 216 °C

CC(Cl)C(=O)NCc1ccccc1F (stereo unspecified)
melting point: 66 to 68 °C

CC(=O)c1ccoc1
melting point: 52 to 54 °C

Nc1nnc(Cc2ccc(F)cc2)[nH]1
melting point: 197 to 199 °C

Nc1nc(Cl)ccc1[N+](=O)[O-]
melting point: 188 to 193 °C

COc1ccc([N+](=O)[O-])cc1NS(=O)(=O)c1cc(C(=O)O)ccc1Cl
melting point: 57 to 59 °C

Cc1ccc(O)c(S(=O)(=O)N2CCNCC2)c1
melting point: 187 to 189 °C

Cc1cccc(-c2nnc(C(C)Cl)o2)c1 (stereo unspecified)
melting point: < 17 °C

Cc1ccc(F)c2c1NC(=O)C2=O
melting point: 227 to 229 °C

O=C(Nc1ccccc1C(=O)O)c1ccc(Oc2ccccc2)cc1
melting point: 189 to 191 °C

Cc1cc(C(=O)N2CCOCC2)ccc1N
melting point: 101 to 103 °C

N#Cc1ccc(NCC(=O)O)nc1
melting point: 167 to 169 °C

CC(C)c1ccc(S(=O)(=O)Cc2ccoc2C(=O)O)cc1
melting point: 156 to 158 °C

Cn1ncc(Cl)c(Cl)c1=O
melting point: 87 to 89 °C

CC1(c2ccc(Br)cc2)CC(=O)OC1=O (stereo unspecified)
melting point: 69 to 71 °C

CCc1nnc(S)n1N
melting point: 143 to 145 °C

O=C1C=CC(=O)N1CCCN1CCOCC1
melting point: 39 to 41 °C

O=S(=O)(Cl)c1ccc(Cl)c2c(Cl)cccc12
melting point: 115 to 117 °C

NCc1cccc(NC(=O)C2CCC2)c1
melting point: 61 to 63 °C

Cc1noc(COCC(=O)O)n1
melting point: 76 to 78 °C

Cc1cc(Br)c(S(=O)(=O)Cl)c(Br)c1
melting point: 124 to 126 °C

COC(=O)CC(=O)c1ccncc1
melting point: 70 to 72 °C

NC(=O)CNc1ccc(C(=O)O)cc1
melting point: 249 to 251 °C

CC1Cc2cc(C(=O)O)ccc2N1S(C)(=O)=O (stereo unspecified)
melting point: 194 to 196 °C

O=c1c(Cl)c(Cl)c1=O
melting point: 49 to 51 °C

O=S(=O)(Nc1nccs1)c1ccccc1
melting point: 169 to 171 °C

Nc1ccc(S(=O)(=O)Nc2ccccc2Cl)c(Cl)c1
melting point: 239 to 241 °C

Nc1nc(SCc2ccccc2)ns1
melting point: 104 to 106 °C

O=S1(=O)Nc2cccc3cccc1c23
melting point: 175 to 177 °C

NCc1ccc(N2CCCC(C(N)=O)C2)cc1 (stereo unspecified)
melting point: 169 to 171 °C

CCC(=O)NCc1cc(S(N)(=O)=O)ccc1OC
melting point: 119 to 121 °C

O=C(O)c1c[nH]cc1C1CC1
melting point: 150 to 152 °C

CC(c1ccccc1)c1ccc(O)cc1 (stereo unspecified)
melting point: 57 to 59 °C

O=Cc1ccc(OCCBr)c(Cl)c1
melting point: 61 to 63 °C

Nc1cc(-c2ccsc2)n[nH]1
melting point: 127 to 129 °C

Cc1ccc(-n2c(C)ccc2C)c(C(=O)O)c1
melting point: 157 to 159 °C

CC(C)c1ccc(C(N)CC(=O)O)cc1 (stereo unspecified)
melting point: 234 to 236 °C

Cc1ccc(C#N)c(Br)c1
melting point: 50 to 55 °C

NC(=O)COc1ccc(N)cc1
melting point: 124 to 126 °C

CCOc1cc(C=O)ccc1OCc1cccnc1
melting point: 73 to 75 °C

Cc1nc(NN)c2c3c(sc2n1)CCC3
melting point: 182 to 184 °C

COc1ccc(-c2csc(C)n2)cc1OC
melting point: 74 to 76 °C

N#Cc1c(Cl)cccc1Oc1cccc(C(=O)O)c1
melting point: 239 to 241 °C

CC(C)(C)c1ccc(N2CCC(=O)CC2)cc1
melting point: 69 to 71 °C

O=C(O)C1CCN(S(=O)(=O)Cc2ccccc2)CC1
melting point: 191 to 193 °C

O=c1cc(CCl)nc2scnn12
melting point: 183 to 187 °C

Nc1cc2c(cc1Cl)OCO2
melting point: 90 to 92 °C
